US20250099488A1, “ANTI-PARASITE COMPOUNDS” (AUSTRALIAN NATIONAL UNIVERSITY, priority 2022, published 2025)
Read-outs that look alike come from different tables or passages of the source.

How the values were obtained:
[1] = HEK293 cell viability assay (MTT); type: cell-based, human; details: human, 96 hours, FIG. 16H / FIG. 18C, read-out: IC50, HEK293 cytotoxicity
Experimental: HEK293 cell viability assays began with 5000 cells per well. 10 μg/mL cycloheximide was used as a no-growth control. Metabolic capacity (indicating viability) was measured by incubation with 0.45 mg/mL methylthiazolyldiphenyl-tetrazolium bromide (MTT; Sigma M2128) for two hours followed by crystal solubilisation in SDS.

[2] = system: human foreskin fibroblasts (HFF); experiment: HFF growth inhibition assay (SYBR Safe); type: cell-based; details: 72 hours, FIG. 16G
Experimental: Cells were incubated with a serial dilution of each compound, or media/DMSO alone. The protein synthesis inhibitor cycloheximide (10 μg/mL) was used as a positive control to determine background fluorescence. Approximately 5000 cells were seeded in each well. […] Plates were transferred to a −18° C. freezer. […] Fluorescence was read at 490 nm excitation/520 nm emission on a FLUOstar Optima fluorescence plate reader.
HFF cell growth inhibition assays began with 5000 cells per well. 10 μg/mL cycloheximide was used as a no-growth control.

[3] = system: P. falciparum gametocytes (stage III-IV); experiment: Gametocyte viability assay (MitoTracker, flow cytometry); type: cell-based, Plasmodium falciparum; details: Plasmodium falciparum, read-out: IC50, gametocyte viability
Source text: Gametocyte assays begun eight days post-invasion (Stage III-IV).
(§1) Growth inhibition data were normalised by subtracting background fluorescence, luminescence, absorbance, or percentage of cells from a no-growth or no-viability control (high drug concentration, no-parasite control, or time=0 measurement as specified), and expressed as a percentage of the growth or cell percentage in the negative control (culture media alone or solvent control) at the indicated timepoint (or to the highest measurement reached during the assay for FIG. 15B).

[4] = system: human hepatoma cells (Huh7); experiment: Huh7 hepatoma viability assay (CellTiter-Blue); type: cell-based; details: 48 hours; effect on cellular integrity / modest cytotoxicity
Experimental: Huh7 hepatoma viability assays were conducted in the same manner as the P. berghei assays, with metabolic capacity (indicating viability) measured by incubation with CellTiter-Blue® (Promega) for 3 hours.

[5] = system: P. falciparum CAM3.IIREV (susceptible); experiment: Ring stage survival assay, susceptible revertant strain; type: cell-based, Plasmodium falciparum; details: 700 nM for six hours, then 66 hours without drug
Source text: (§2) The inventors tested these compounds in a ring stage survival assay, which allows the detection of resistant parasites against this […] drug and is the standard method for investigating resistance to artemisinin and its derivatives (Witkowski B, Menard D, Amaratunga C. Fairhurst R. Ring-stage Survival Assays (RSA) to evaluate the in-vitro and ex-vivo susceptibility of Plasmodium falciparum to artemisinins Procedure. Inst Pasteur du Cambodge—Natl Institutes Heal [Internet]. 2013 Sep. 11 [cited 2022 Jun. 19]; Procedure; available from: https://www.wwarn.org/sites/default/files/INV10-Standard-Operating-Procedure-Ring-Stage-Survival-Assays.pdf). This assay involves a short treatment window against newly-invaded ring stage parasites, followed by removal of drug pressure to mimic the clearance of the drug from plasma. We utilised two parasite strains: an isolate from Cambodia (CAM3.II) with a mutated Kelch-13 conferring resistance, and a genetically modified revertant of this strain (CAM3.IIREV) conferring drug susceptibility (Straimer J, Gnädig N F, Witkowski B, Amaratunga C, Duru V, Ramadani A P, et al. K13-propeller mutations confer artemisinin resistance in Plasmodium falciparum clinical isolates. Science (80-) [Internet]. 2015 Jan. 23 [cited 2022 Jun. 19]; 347(6220):428-31; available from: https://www.science.org/doi/10.1126/science.1260867).
(§3) Following tight synchronisation, CAM3.II and CAM3.IIREV ring stage parasites (0-3 hours post invasion) at 1% parasitaemia and 2% haematocrit were incubated with 700 nM of compounds or solvent-only controls for exactly six hours, before removing the drug, thoroughly washing in RPMI, and returning to culture conditions for a further 66 hours. Some cells were treated with 700 nM artesunate for 72 hours as a no-growth control. DNA replication (indicating growth) was measured at the specified time using SYBR Safe DNA Gel Stain. Microscope slide smears of each condition were stained with 10% v/v Giemsa and examined under a light microscope (1 000× magnification); with ‘viable’ (morphologically normal) and ‘non-viable’ (morphologically aberrant; vacuolated or pyknotic) parasites distinguished according to standard protocol (Witkowski B, Menard D, Amaratunga C, Fairhurst R. Ring-stage Survival Assays (RSA) to evaluate the in-vitro and ex-vivo susceptibility of Plasmodium falciparum to artemisinins Procedure. Inst Pasteur du Cambodge—Natl Institutes Heal [Internet]. 2013 Sep. 11 [cited 2022 Jun. 19]; Procedure. Available from: https://www.wwam.org/sites/default/files/INV10-Standard-Operating-Procedure-Ring-Stage-Survival-Assays.pdf). Images were captured using a Leica ICC50 camera, with a resolution of 76 nm per pixel.

[6] = system: P. falciparum CAM3.II (mutated Kelch-13, resistant); experiment: Ring stage survival assay, resistant strain; type: cell-based, Plasmodium falciparum; details: 700 nM for six hours, then 66 hours without drug; for Parasite survival (DNA replication): FIG. 17B
Source text: as §2, §3

asexual P. falciparum = experiment: Plasmodium growth inhibition assay (SYBR Safe), asexual stages; type: cell-based, Plasmodium falciparum; details: for Inhibitory effect on proliferation of asexual stages: FIG. 11D, cholesterol in ethanol, DMSO or ethyl acetate, DHEA
Experimental: Compounds or solvent controls (DMSO, ethanol, or ethyl acetate) were serially diluted 2-fold across flat-bottom 96-well plates. Complete culture media without compound was used as a negative control. Chloroquine (100-200 nM) {Sigma C6628} was used as a positive control to determine background fluorescence. The parasitaemia of a culture containing predominantly ring stage parasites was counted by Giemsa smear. The parasitaemia was adjusted to 1% by addition of fresh uRBCs, and added to the plate at a final haematocrit of 1%, with 200 μL per well. The plates were incubated at 37° C. under humid microaerophilic conditions. […] Fluorescence was read at 490 nm excitation/520 nm emission on a FLUOstar Optima fluorescence plate reader {BMG Labtech}.
Growth inhibition data were normalised by subtracting background fluorescence from a no-growth control (high drug concentration or time=0 measurement as specified), and expressed as a percentage of the growth in the negative control (media alone or solvent control) either at the indicated timepoint, or to the highest measurement reached during the assay.
P. falciparum asexual parasite assays begun with ring-stage parasites at 1% parasitaemia and 1% haematocrit. 200 nM chloroquine (Sigma C6628) was used as a no-growth control. […] 17]; 8 (2):e54974).
as §1

[7] = system: P. berghei liver stage schizonts; experiment: P. berghei liver stage parasite size and number (fluorescence microscopy) in Huh7 cells; type: cell-based, Plasmodium berghei; details: 3 μM, 48 hours post-infection, vs DMSO
Experimental: (§4) Huh7 cells were seeded at a density of 10 000 cells per well, or 20 000 per collagen-coated coverslip. […] Uninfected wells served as a control for background luminescence. […] Data are presented as a percentage of the size or parasite number of the solvent control to normalize for differences between experiments. For cell images presented in the figure, images were collected under optimal exposure settings to ensure features were visible. Individual cells were cropped from larger images with Fiji ImageJ, and the brightness was adjusted while ensuring that no fluorescence was removed. No other manipulations were performed.

[8] = system: Toxoplasma gondii tachyzoites; experiment: Toxoplasma growth inhibition assay (tdTomato fluorescence); type: cell-based; details: Toxoplasma gondii, 72 h, read-out: IC5 against T. gondii
Experimental: Fluorescent Toxoplasma gondii parasites were inoculated into an optical bottom 96-well plate containing confluent human foreskin fibroblast (HFF) host cells at a density of 2000 parasites/well, with a serial dilution of each compound, or media/DMSO alone. Plates were measured daily with a FluoStar Optima fluorescence plate reader at 540 nm excitation/590 nm emission for seven days, and the background fluorescence from the time 0 reading was subtracted from all other measurements.
Fluorescence was measured daily with a FluoStar Optima fluorescence plate reader for one week, and the background fluorescence from the time 0 reading was subtracted from all other measurements.
as §1

P. berghei liver stages = experiment: P. berghei liver stage growth assay (luciferase) in Huh7 cells; type: cell-based, Plasmodium berghei; details: Plasmodium berghei, Huh-7; 48 hours of treatment from sporozoite inoculation, Huh7 cells, FIG. 16A
Experimental: as §4, §1

[9] = Plasmodium falciparum, 72 hours, FIG. 18B, read-out: IC50
[10] = Plasmodium falciparum, 24 hours, starting with ring-stage parasites, FIG. 14B, read-out: IC50

CC(C)OC(=O)CCC(=O)O[C@H]1CC[C@H]2[C@@H]3CC=C4C[C@@H](O)CC[C@]4(C)[C@H]3CC[C@]12C [C-17-link, 3β-Hydroxyandrost-5-en-17β-yl succinate-propan-2-yl diester]
IC50 at 96 h [1]: 43.6 µM | IC50, fibroblast growth [2]: no notable inhibition was observed | IC50 ([3]; 48 h): > 100 µM | Concentration at which cytotoxic effect was detected [4]: > 30 µM | Parasite survival / growth inhibition (DNA replication) ([5]; FIG. 17B): did not significantly impact on the growth of either strain | Parasite survival (DNA replication) [6]: did not significantly impact on the growth of either strain

COc1cc(NC(C)CCCNC(=O)CCC(=O)OC(C)C)c2ncccc2c1 (stereo not drawn) [prim-link, Propan-2-yl succinate-primaquine amide]
IC50 at 96 h ([1]; HEK293 cells): 13.3 µM | IC50 ([3]; 48 hours of incubation, stage III-IV, FIG. 14C): > 100 µM

CC(C)OC(=O)CCC(=O)O[C@@H]1O[C@@H]2O[C@]3(C)CC[C@H]4[C@H](C)CC[C@@H]([C@H]1C)[C@@]24OO3 [art-link, Propan-2-yl artesunate ester]
Morphology in Giemsa-stained smears [5]: only morphologically aberrant parasites were present | Morphology in Giemsa-stained smears [6]: a combination of morphologically normal parasites and morphologically aberrant pyknotic or vacuolated forms | Parasite survival (DNA replication) [6]: showed a trend to improved efficacy over artesunate

C[C@H]1[C@H](OC(=O)CCC(=O)O[C@H]2CC[C@H]3[C@@H]4CC=C5C[C@@H](O)CC[C@]5(C)[C@H]4CC[C@]23C)O[C@@H]2O[C@]3(C)CC[C@H]4[C@H](C)CC[C@@H]1[C@@]24OO3 [C-17-art, 3β-Hydroxyandrost-5-en-17β-yl succinate-artesunate ester]
Morphology in Giemsa-stained smears [5]: only morphologically aberrant parasites were present | Morphology in Giemsa-stained smears [6]: only aberrant, non-viable parasites were visible | Parasite survival (DNA replication) [6]: kills all cells

CC1CCC2C(C)C(OC(=O)CCC(=O)OC3CCC4C5CC=C6CC(O)CCC6(C)C5CCC34C)OC3OC4(C)CCC1C32OO4 (stereo not drawn) [PAYb076a]
Effect of steroid-artesunate conjugates on proliferation (asexual P. falciparum; 72 hrs, FIG. 13B/13C): better activity than coupling via C3

CC(C)(C)OOC(C)(C)C [di-ter-butyl peroxide, di-tert-butyl peroxide, reference compound]
IC50 (asexual P. falciparum; 72 hours, FIG. 18B, read-out: IC50): > 25 µM

CC(C)CCC[C@@H](C)[C@H]1CC[C@H]2[C@@H]3CC=C4C[C@@H](O)CC[C@]4(C)[C@H]3CC[C@]12C [cholesterol, Cholesterol, reference compound]
Inhibitory effect on proliferation of asexual stages (asexual P. falciparum): No inhibitory effect could be detected in the concentration range being used | IC50 (asexual P. falciparum; [9]): > 400 µM

Cc1ncc([N+](=O)[O-])n1CCOC(=O)CCC(=O)O[C@H]1CC[C@H]2[C@@H]3CC=C4C[C@@H](O)CC[C@]4(C)[C@H]3CC[C@]12C [BC62D, 3β-Hydroxyandrost-5-en-17β-yl succinate-metronidazole diester]
IC50 (asexual P. falciparum; Plasmodium falciparum, Example 4, FIG. 20B, read-out: IC50): 24 µM

COc1cc(NC(C)CCCN)c2ncccc2c1 (stereo not drawn) [primaquine, reference compound]
IC50 at 96 h [1]: 10.6 µM | Smaller parasite size (reduction) [7]: 61% | IC50 ([3]; 48 h): 63.5 µM | IC50 [8]: 9.7 µM | Hill slope of inhibitory curve (asexual P. falciparum; 24 hours): −1.65 | Hill slope of inhibitory curve (asexual P. falciparum; 72 hours): −1.48 | IC10 (asexual P. falciparum; FIG. 8B, Example 2): 12 µM | IC90 (asexual P. falciparum; Plasmodium falciparum, 24 h): 41 µM | IC50 (asexual P. falciparum; Plasmodium falciparum, 72 h): 3.2 µM | IC50 (P. berghei liver stages): 2.9 µM

COc1cc(NC(C)CCCNC(=O)CCC(=O)O[C@H]2CC[C@@]3(C)C(=CC[C@H]4[C@@H]5CC[C@H]([C@H](C)CCCC(C)C)[C@@]5(C)CC[C@@H]43)C2)c2ncccc2c1 (stereo partly drawn) [C-3-prim, Cholester-3-yl succinate-primaquine amide]
No inhibition of parasite growth up to (concentration) (asexual P. falciparum; 24 hours): > 100 µM | IC50 (asexual P. falciparum; [10]): > 200 µM

C[C@]12CC[C@H](O)CC1=CC[C@@H]1[C@@H]2CC[C@]2(C)C(=O)CC[C@@H]12 [DHEA, 3β-Hydroxyandrost-5-en-17-one, reference compound]
Inhibitory effect on proliferation of asexual stages (asexual P. falciparum): influences proliferation, although at relatively high concentrations | IC50 (asexual P. falciparum; [9]): 150 µM

CC(C)CCC[C@@H](C)[C@H]1CC[C@H]2[C@@H]3CC=C4C[C@@H](OC(=O)CCC(=O)OC(C)C)CC[C@]4(C)[C@H]3CC[C@]12C [C-3-link, 3β-Succinate-(propan-2-yldiester)-cholest-5-ene]
No inhibition of parasite growth up to (concentration) (asexual P. falciparum; 24 hours): > 200 µM | IC50 (asexual P. falciparum; [10]): > 200 µM

Cc1ncc([N+](=O)[O-])n1CCO [Metronidazole, metronidazole, reference compound]
IC50 (asexual P. falciparum; Example 4, FIG. 20B): almost no effect in the range tested
